# Measured values taken from patent US20060121449A1, “Method for selection of compounds which inhibit clonal cell growth and use thereof” (priority 2002, published 2006).
# Entries after “also recorded” stand apart in the source; their conditions may differ.
# Experiments:
# [1] = test system: BHK21/c13 (normal baby hamster kidney cells); assay: Clonal growth of normal BHK21/c13 cells in soft agar with growth factors (Exp 3, 6); format: cell-based; design: Clonal inhibition: unit not given here; settings: for Clonal inhibition: BHK21/c13 + insulin
# Protocol: This experiment used BHK21/c13 cells grown in the Falcon plates with 24 wells. Each well received 120000 cells seeded in a top layer of 0.3 ml with 0.8% ultra low gelling temperature agarose (type IX, Sigma). This layer was placed upon a 0.3 ml bottom layer with 3% of the same agarose. The medium contained Eagles MEM and RPMI 1640 with 10% foetal bovine serum. The medium was supplemented with either: 15% conditioned medium (from BHK21/c13 cultures), the serum extender Mito+ or 0.1 i.u. Insulin Actrapid (Novo) or with two or all three of these in combination.
# Agar cultures were prepared in wells of 24 well Falcon tissue culture plate. […] The medium contained about equal amounts of Eagle and RPMI 1640 with 10% FBS. Insulin (Actrapid, Novo) was added in a concentration of 0.1 i.u./ml to BHK21/c13 cell cultures only.
# [2] = test system: S100T1 cell strain (polyoma virus transformed BHK21/c13); assay: Surface growth (degree of confluence) of S100T1 cells on plastic (Exp 5); format: cell-based, hamster; settings: 2-4 days
# From the text: (§1) The degree of confluence of polyoma virus transformed BHK21/c13 cells, the S100T1 cell strain, growing on plastic surface was observed 2-4 days after seeding 3000 or […] cells in appropriate wells of a 96 well tissue culture plate (Nunc).
# BHK21/c13 cells = assay: Surface growth (degree of confluence) of BHK21/c13 cells on plastic (Exp 5); format: cell-based, hamster; settings: for Concentration giving about full inhibition of growth on surface: 2-4 days
# From the text: as §1
# HSV2 = HSV2 replication and cytopathogenicity in RK13 cells (Exp 12); format: cell-based, Herpes virus 2; settings: for Coverage of the bottom read after 24 hours: 1 g = 100% coverage of the bottom; for Cytopathogenicity read after 24 hours: 1d is 100% degeneration
# Protocol: RK13 cells and HSV2 v12225 was obtained from Dr. G. Hoddevik, National Institute of Public Health, Oslo, Virus had been stored at −75° C. It was propagated on RK13 cells.
# Then the medium, Eagles MEM with 5% FCS, was removed and replaced by new medium.
# The inoculated virus was removed by changing the medium the day before titration. […] 1, esperiment 12.
# [3] = test system: spleen antibody producing cells against sheep red cells; assay: Jerne's test: haemolytic plaques of spleen cells after immunisation with sheep red cells (Exp 10); format: in vivo, mouse; settings: Exp 10 animal 2, low: 2 μl 20 mM s.c. (est. max extracellular 4.6 μM)
# [4] = test system: Ehrlich ascites cells injected subcutaneously; assay: Subcutaneously transplanted Ehrlich cells in mice, export of metastatic cells (Exp 9); settings: for Export (migration) of subcutaneously injected Ehrlich cells to peritoneum in treated animals / Solid tumours at subcutaneous injection sites: Exp 9; for Export (migration) of subcutaneously injected Ehrlich cells to peritoneum in treated animals: i.p. injections twice a week, untreated control developed ascites only
# Protocol: This assay involves different numbers of Ehrlich carcinoma cells injected in six subcutaneous locations of mice that were treated by intraperitoneal injections of the compound tested, e.g. 4-OH-OPB (experiment number 9). […] When operating with different cell numbers in the different injection sites, the number of growing tumours indicated which cell number that is necessary for the development of tumours in treated or untreated animals.
# Ehrlich ascites was stored in liquid nitrogen on serum with 10% DMSO. The ampoules were thawed in water of 37° C., diluted in serum, and pelleted by low speed centrifugation after the addition of 2 ml FBS, to remove DMSO.
# The cells were diluted in volumes of 0.6 ml RPM (pH about 6.9) for each animal with no serum added. The 4-OH-OPB was injected intraperitonally twice a week, see Table 2.
# [5] = Exp 9 mouse 1: 10.5 μl 0.2 M i.p. (est. extracell. conc. 281)
# [6] = Exp 9 mouse 1: 10.5 μl 0.2 M i.p. twice a week (est. extracell. conc. 281)
# [7] = Exp 9 mouse 3: 9.6 μl 20 mM i.p. (27.9)
# [8] = Exp 9 mouse 3: 9.6 μl 20 mM i.p. twice a week (27.9)
# [9] = Exp 9 mouse 4: 1.37 μl 20 mM i.p. (2.8)
smiles,measurement,setting,value
"CCCCC1(O)C(=O)N(c2ccccc2)N(c2ccc(O)cc2)C1=O (stereo not shown) [4-OH-OPB, 4-butyl-4-hydroxy-2(p-hydroxyphenyl)-1-phenyl-3,5-pyrazolidinedione]",Clonal inhibition,"[1]; 0.3 μM added after 24 hours, read after 48 hours",0
same,Clonal inhibition,"[1]; 0.3 μM added immediately, read after 24 hours",0
same,Clonal inhibition,"[1]; 0.3 μM added immediately, read after 48 hours",0
same,Clonal inhibition,"[1]; 1 μM added after 24 hours, read after 48 hours",0
same,Clonal inhibition,"[1]; 1 μM added immediately, read after 24 hours",0
same,Clonal inhibition,"[1]; 1 μM added immediately, read after 48 hours",0
same,Clonal inhibition,"[1]; 3 μM added after 24 hours, read after 48 hours",0
same,Clonal inhibition,"[1]; 3 μM added immediately, read after 24 hours",0
same,Clonal inhibition,"[1]; 3 μM added immediately, read after 48 hours",0
same,Clonal inhibition,"[1]; 10 μM added after 24 hours, read after 48 hours",0
same,Clonal inhibition,"[1]; 10 μM added immediately, read after 24 hours",+
same,Clonal inhibition,"[1]; 10 μM added immediately, read after 48 hours",+
same,Clonal inhibition,"[1]; 30 μM added after 24 hours, read after 48 hours",0
same,Clonal inhibition,"[1]; 30 μM added immediately, read after 24 hours",+++
same,Clonal inhibition,"[1]; 30 μM added immediately, read after 48 hours",++
same,Effect when treated first after 24 hours,"[1]; Exp 6, BHK21/c13",no effect was detected
same,"Concentration with small, but significant effect on clonal inhibition","[1]; Exp 6, BHK21/c13, treated immediately on seeding, photograph after 24 hours",≥ 10 µM
same,Concentration giving about full inhibition of growth on surface,[2]; 3000 S100T1 cells/well,1 µM
same,Concentration giving about full inhibition of growth on surface,[2]; 10000 S100T1 cells/well,3 µM
same,"Concentration needed for total inhibition of surface growth, BHK21/c13 compared to S100T1",BHK21/c13 cells,about 3 times
same,Growth on surface with 100 and 300 nM after 4 days,BHK21/c13 cells; 3000 BHK21/c13 cells/well,growth inhibition compared to the control
same,Concentration giving about full inhibition of growth on surface,BHK21/c13 cells; 3000 BHK21/c13 cells/well,3 µM
same,Concentration giving about full inhibition of growth on surface,BHK21/c13 cells; 10000 BHK21/c13 cells/well with 0.1 i.u./ml insulin,10 µM
same,Concentrations with inhibited production of HSV2,HSV2,above 0.1 μM
same,Coverage of the bottom read after 24 hours,"HSV2; 2 μl/well, 0.1 μM",1 g
same,Cytopathogenicity read after 24 hours,"HSV2; 2 μl/well, 0.1 μM",0.6 days
same,Coverage of the bottom read after 24 hours,"HSV2; 2 μl/well, 0.3 μM",1 g
same,Cytopathogenicity read after 24 hours,"HSV2; 2 μl/well, 0.3 μM",0.7 days
same,Coverage of the bottom read after 24 hours,"HSV2; 2 μl/well, 1 μM",1 g
same,Cytopathogenicity read after 24 hours,"HSV2; 2 μl/well, 1 μM",0.7 days
same,Coverage of the bottom read after 24 hours,"HSV2; 2 μl/well, 3 μM",0.8 g
same,Cytopathogenicity read after 24 hours,"HSV2; 2 μl/well, 3 μM",0.95 days
same,Coverage of the bottom read after 24 hours,"HSV2; 2 μl/well, 10 μM",0.9 g
same,Cytopathogenicity read after 24 hours,"HSV2; 2 μl/well, 10 μM",0.95 days
same,Coverage of the bottom read after 24 hours,"HSV2; 2 μl/well, 30 μM",0.7 g
same,Cytopathogenicity read after 24 hours,"HSV2; 2 μl/well, 30 μM",0.2 days
same,Coverage of the bottom read after 24 hours,"HSV2; 8 μl/well, 0.1 μM",1 g
same,Cytopathogenicity read after 24 hours,"HSV2; 8 μl/well, 0.1 μM",0.9 days
same,Coverage of the bottom read after 24 hours,"HSV2; 8 μl/well, 0.3 μM",1 g
same,Cytopathogenicity read after 24 hours,"HSV2; 8 μl/well, 0.3 μM",0.9 days
same,Coverage of the bottom read after 24 hours,"HSV2; 8 μl/well, 1 μM",1 g
same,Cytopathogenicity read after 24 hours,"HSV2; 8 μl/well, 1 μM",0.9 days
same,Coverage of the bottom read after 24 hours,"HSV2; 8 μl/well, 3 μM",0.8 g
same,Cytopathogenicity read after 24 hours,"HSV2; 8 μl/well, 3 μM",0.95 days
same,Coverage of the bottom read after 24 hours,"HSV2; 8 μl/well, 10 μM",0.86 g
same,Cytopathogenicity read after 24 hours,"HSV2; 8 μl/well, 10 μM",0.95 days
same,Coverage of the bottom read after 24 hours,"HSV2; 8 μl/well, 30 μM",0.7 g
same,Cytopathogenicity read after 24 hours,"HSV2; 8 μl/well, 30 μM",0.2 days
same,Inhibition of HSV2 titre at 3 μM,HSV2; titration incubated for 3 days,about 3 log
same,Spleen weight,[3],148 mg
same,Export (migration) of subcutaneously injected Ehrlich cells to peritoneum in treated animals,[4],"did not get ascites with tumour cells, only solid tumours; also recorded: no spread of tumour cells from these subcutaneous injection sites were found in peritoneum; also recorded: effective in stopping migration of tumour cells to peritoneum; also recorded: None of the treated ones got ascites"
same,Export (migration) of subcutaneously injected Ehrlich cells to peritoneum in treated animals,[4]; listed as 4-OH—OPB,Found inhibition on metastatic
same,Solid tumours at subcutaneous injection sites,[4]; the two mice receiving smaller doses,only one tumour
same,Solid tumours at subcutaneous injection sites,"[4]; very high dose mouse, sites with 6250 and 31250 cells",two tumours of the abdominal wall
same,Toxic effects of the very high dose,[4]; Exp 9 mouse 1: 10.5 μl 0.2 M i.p.,"caused adherences in peritoneum; also recorded: liver, spleen and possibly kidneys became affected by its toxicity; also recorded: died of haemorrhagic effusion in thorax"
same,"Day 21, pathology",[4]; [5],Ascites
same,Pathology after 24 days,[4]; [5],Ascites or thoracic fluid did not contain Ehrlich cells
same,Pathology after 24 days,"[4]; Exp 9 mouse 1: 10.5 μl 0.2 M i.p. (est. extracell. conc. 281), listed as 4-OH—OPB",number developed solid tumours; also recorded: Toxic ascites and thoracic
same,"Clinical status, day 14",[4]; [6],No Ehrlich
same,"Day 3-7, clinical status",[4]; [6],no tumour
same,"Weight, day 18","[4]; Exp 9 mouse 1: 10.5 μl 0.2 M i.p. twice a week, initial weight 26.2",37.4 g
same,Animal weight after 24 days,"[4]; Exp 9 mouse 1: 10.5 μl 0.2 M i.p., initial weight 26.2",40.2 g
same,"Day 21, pathology",[4]; [7],Lens sized
same,Pathology after 24 days,[4]; [7],Ascites or organ tumours were not found
same,Pathology after 24 days,"[4]; Exp 9 mouse 3: 9.6 μl 20 mM i.p. (27.9), listed as 4-OH—OPB",Pea sized tumour in left
same,"Clinical status, day 14",[4]; [8],No tumour
same,"Clinical status, day 18",[4]; [8],No tumour
same,Animal weight after 24 days,"[4]; Exp 9 mouse 3: 9.6 μl 20 mM i.p., initial weight 24.1",25 g
same,"Day 21, pathology",[4]; [9],Small tumour
same,Pathology after 24 days,[4]; [9],slightly observable tumour in the abdominal wall
same,Pathology after 24 days,"[4]; Exp 9 mouse 4: 1.37 μl 20 mM i.p. (2.8), listed as 4-OH—OPB","days ago, now lens sized."
same,Animal weight after 24 days,"[4]; Exp 9 mouse 4: 1.37 μl 20 mM i.p., initial weight 34.2",33.5 g. Tumour as discovered 3
same,Estimated concentration in extracellular fluid at which serious toxicity occurs,[4]; extracellular fluid calculated as 2/7 of the animal weight,280 µM
